What all share (type): biochemical
The target in one test is T1, JAK2 (Homo sapiens, UniProt O60674).
T1 construct: All four purified enzymes contain only the catalytic domain; His (N); purchased Carna Biosciences, Inc; host or cells: baculovirus expression system
Briefly: JAK2 kinase assay (HTRF, inhibition of phosphorylation of a synthetic peptide). To be noted: catalytic domain, His-tag; 4 μM ATP (Km); read-out: JAK2 kinase inhibitory activity (EC50). Put shortly: (§1)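 HTRF detection (streptavidin-XL665, cryptate anti-phospho antibody, overnight in the dark) after EDTA stop of a 20-30 min RT reaction on 1 μM TK substrate-biotin. Km-level ATP per kinase: 7 μM for JAK1 and 13 μM for TYK2, both N-terminal GST, with 50 nM SEB; 4 μM for JAK2 and 2 μM for JAK3, both His-tagged. Catalytic domains only; DMSO 0.75%.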
A general note: In TR-FRET formats the signal depends on donor and acceptor labels being close together.

In another test the target is T2, JAK1 (Homo sapiens, UniProt P23458).
T2 construct: JAK1 (aa 850-1154) and TYK2 (aa 871-1187) are expressed with an N-terminally fused GST-tag; GST (N); purchased Carna Biosciences, Inc; host or cells: baculovirus expression system
T2 sequence (P23458 850-1154): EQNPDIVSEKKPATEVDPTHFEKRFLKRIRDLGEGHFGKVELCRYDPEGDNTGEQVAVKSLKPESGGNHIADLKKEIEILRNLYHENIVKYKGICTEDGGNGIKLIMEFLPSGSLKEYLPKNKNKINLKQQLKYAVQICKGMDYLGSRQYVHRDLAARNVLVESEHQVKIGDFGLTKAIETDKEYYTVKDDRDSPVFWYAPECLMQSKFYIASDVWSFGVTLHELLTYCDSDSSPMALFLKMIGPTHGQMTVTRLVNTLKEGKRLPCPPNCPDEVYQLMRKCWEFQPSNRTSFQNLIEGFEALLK
Briefly: JAK1 kinase assay (HTRF, inhibition of phosphorylation of a synthetic peptide). To be noted: catalytic domain aa 850-1154, GST-tag; 7 μM ATP (Km); read-out: JAK1 kinase inhibitory activity (EC50). Put shortly: as §1

A further test concerns the target T3, JAK3 (Homo sapiens, UniProt P52333).
T3 construct: All four purified enzymes contain only the catalytic domain; His (N); purchased Carna Biosciences, Inc; host or cells: baculovirus expression system
Briefly: JAK3 kinase assay (HTRF, inhibition of phosphorylation of a synthetic peptide). To be noted: catalytic domain, His-tag; 2 μM ATP (Km); read-out: JAK3 kinase inhibitory activity (EC50). The method in brief:
as §1

We go through 25 compounds from patent US9586961B2, “Homopiperazine derivatives as protein tyrosine kinase inhibitors and pharmaceutical use thereof” (LEO PHARMA A/S, priority 2010, dated 2017).

T3 sequence (P52333 822-1111 limits assumed): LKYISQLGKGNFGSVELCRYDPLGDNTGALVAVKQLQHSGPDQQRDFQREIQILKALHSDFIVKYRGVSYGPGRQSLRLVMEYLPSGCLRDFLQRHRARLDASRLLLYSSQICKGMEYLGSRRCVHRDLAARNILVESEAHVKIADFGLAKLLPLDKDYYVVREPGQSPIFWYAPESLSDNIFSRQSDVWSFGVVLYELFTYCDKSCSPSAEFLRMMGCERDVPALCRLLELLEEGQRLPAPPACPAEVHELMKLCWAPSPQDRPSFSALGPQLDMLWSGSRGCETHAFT
T1 sequence (O60674 849-1124 limits assumed): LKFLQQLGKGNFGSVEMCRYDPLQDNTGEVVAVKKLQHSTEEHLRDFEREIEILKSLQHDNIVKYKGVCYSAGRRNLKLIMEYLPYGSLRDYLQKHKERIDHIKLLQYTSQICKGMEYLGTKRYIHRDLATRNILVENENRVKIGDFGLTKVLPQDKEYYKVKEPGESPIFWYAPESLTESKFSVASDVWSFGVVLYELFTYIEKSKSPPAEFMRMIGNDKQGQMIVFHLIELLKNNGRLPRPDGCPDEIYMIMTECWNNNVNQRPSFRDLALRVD

One may read the EC50 as the concentration that produces a half-maximal response. Regarding `Cc1cc(C(=O)N2CCCN(c3ncnc4[nH]ccc34)CC23CC3)sn1` [Example 234, (3-methylisothiazol-5-yl)-[5-(7H-pyrrolo[2,3-d]pyrimidin-4-yl)-5,9-diazaspiro[2.6]nonan-9-yl]methanone], the EC50 was 100 to 1000 nM at JAK2, above 1000 nM at JAK1 and above 1000 nM at JAK3.
Turning to `O=C(c1ccns1)N1CCN(c2ncnc3[nH]ccc23)CC2(CC2)C1` [Example 235, isothiazol-5-yl-[5-(7H-pyrrolo[2,3-d]pyrimidin-4-yl)-5,8-diazaspiro[2.6]nonan-8-yl]methanone], the concentration for a half-maximal effect (EC50) on JAK2, at JAK1 and on JAK3 was 100 to 1000 nM throughout.
As to `O=C(c1cncs1)N1CCN(c2ncnc3[nH]ccc23)CC2(CC2)C1` [Example 239, [5-(7H-pyrrolo[2,3-d]pyrimidin-4-yl)-5,8-diazaspiro[2.6]nonan-8-yl]-thiazol-5-yl-methanone], the half-maximal effective concentration (EC50) at JAK2, on JAK1 and on JAK3 was 100 to 1000 nM throughout.
Consider `O=C(c1cncs1)N1CCCN(c2ncnc3[nH]ccc23)CC12CC2` [Example 240, [5-(7H-pyrrolo[2,3-d]pyrimidin-4-yl)-5,9-diazaspiro[2.6]nonan-9-yl]-thiazol-5-yl-methanone], for which the half-maximal effective concentration (EC50) on JAK2, at JAK1 and on JAK3 was 100 to 1000 nM each time.
For `Cc1cnc(C(=O)N2CCN(c3ncnc4[nH]ccc34)CC3(CC3)C2)s1` [Example 241, (5-methylthiazol-2-yl)-[5-(7H-pyrrolo[2,3-d]pyrimidin-4-yl)-5,8-diazaspiro[2.6]nonan-8-yl]methanone], the EC50 on JAK2, on JAK1 and on JAK3 was 100 to 1000 nM in each case.
`Cc1nocc1C(=O)N1CCN(c2ncnc3[nH]ccc23)CC2(CC2)C1` [Example 244, (3-methylisoxazol-4-yl)-[5-(7H-pyrrolo[2,3-d]pyrimidin-4-yl)-5,8-diazaspiro[2.6]nonan-8-yl]methanone]: the EC50 at JAK2, at JAK1 and on JAK3 was 100 to 1000 nM throughout.
Consider `Cc1nocc1C(=O)N1CCCN(c2ncnc3[nH]ccc23)CC12CC2` [Example 245, (3-methylisoxazol-4-yl)-[5-(7H-pyrrolo[2,3-d]pyrimidin-4-yl)-5,9-diazaspiro[2.6]nonan-9-yl]methanone], for which the values for the 50% effective concentration (EC50) on JAK2, at JAK1 and at JAK3 were 100 to 1000 nM, above 1000 nM and above 1000 nM, respectively.
`Cc1ncsc1CC(=O)N1CCN(c2ncnc3[nH]ccc23)CC2(CC2)C1` [Example 246, 2-(4-methylthiazol-5-yl)-1-[5-(7H-pyrrolo[2,3-d]pyrimidin-4-yl)-5,8-diazaspiro[2.6]nonan-8-yl]ethanone]: the concentration for a half-maximal effect (EC50) on JAK2 is 100 to 1000 nM; on JAK1, 100 to 1000 nM; on JAK3, above 1000 nM.
For `Cc1ncc(CC(=O)N2CCN(c3ncnc4[nH]ccc34)CC3(CC3)C2)s1` [Example 247, 2-(2-methylthiazol-5-yl)-1-[5-(7H-pyrrolo[2,3-d]pyrimidin-4-yl)-5,8-diazaspiro[2.6]nonan-8-yl]ethanone], the half-maximal effective concentration (EC50) at JAK2 is below 100 nM; at JAK1, 100 to 1000 nM; at JAK3 it was above 1000 nM.
The like results for `Cc1cc(CC(=O)N2CCN(c3ncnc4[nH]ccc34)CC3(CC3)C2)n[nH]1` [Example 248, 2-(5-methyl-1H-pyrazol-3-yl)-1-[5-(7H-pyrrolo[2,3-d]pyrimidin-4-yl)-5,8-diazaspiro[2.6]nonan-8-yl]ethanone] were, in that order, below 100 nM, 100 to 1000 nM and above 1000 nM.
As for `Cc1noc(C)c1CC(=O)N1CCN(c2ncnc3[nH]ccc23)CC2(CC2)C1` [Example 249, 2-(3,5-dimethylisoxazol-4-yl)-1-[5-(7H-pyrrolo[2,3-d]pyrimidin-4-yl)-5,8-diazaspiro[2.6]nonan-8-yl]ethanone], the values for the concentration giving a half-maximal response (EC50) on JAK2, at JAK1 and at JAK3 were 100 to 1000 nM, 100 to 1000 nM and above 1000 nM, respectively.
For `Cc1n[nH]c(CC(=O)N2CCN(c3ncnc4[nH]ccc34)CC3(CC3)C2)n1` [Example 250, 2-(3-methyl-1H-1,2,4-triazol-5-yl)-1-[5-(7H-pyrrolo[2,3-d]pyrimidin-4-yl)-5,8-diazaspiro[2.6]nonan-8-yl]ethanone], the concentration giving a half-maximal response (EC50) at JAK2, on JAK1 and on JAK3 was 100 to 1000 nM each time.
Take `Cc1nonc1CC(=O)N1CCN(c2ncnc3[nH]ccc23)CC2(CC2)C1` [Example 251, 2-(4-methyl-1,2,5-oxadiazol-3-yl)-1-[5-(7H-pyrrolo[2,3-d]pyrimidin-4-yl)-5,8-diazaspiro[2.6]nonan-8-yl]ethanone]: the results for the half-maximal effective concentration (EC50) on JAK2, at JAK1 and at JAK3 were below 100 nM, below 100 nM and 100 to 1000 nM, respectively.
Turning to `O=C(Cc1cncs1)N1CCN(c2ncnc3[nH]ccc23)CC2(CC2)C1` [Example 252, 1-[5-(7H-pyrrolo[2,3-d]pyrimidin-4-yl)-5,8-diazaspiro[2.6]nonan-8-yl]-2-thiazol-5-yl-ethanone], the concentration for a half-maximal effect (EC50) is below 100 nM on JAK2, 100 to 1000 nM at JAK1 and 100 to 1000 nM at JAK3.
Consider `Cn1cc(CC(=O)N2CCN(c3ncnc4[nH]ccc34)CC3(CC3)C2)cn1` [Example 253, 2-(1-methylpyrazol-4-yl)-1-[5-(7H-pyrrolo[2,3-d]pyrimidin-4-yl)-5,8-diazaspiro[2.6]nonan-8-yl]ethanone], for which the figures for the 50% effective concentration (EC50) at JAK2, on JAK1 and on JAK3 were 100 to 1000 nM, 100 to 1000 nM and above 1000 nM, respectively.
In the case of `Cc1nc(CC(=O)N2CCN(c3ncnc4[nH]ccc34)CC3(CC3)C2)cs1` [Example 254, 2-(2-methylthiazol-4-yl)-1-[5-(7H-pyrrolo[2,3-d]pyrimidin-4-yl)-5,8-diazaspiro[2.6]nonan-8-yl]ethanone], the EC50 on JAK2 was 100 to 1000 nM; at JAK1, 100 to 1000 nM; at JAK3 it was above 1000 nM.
Consider `Cc1nnc(C(=O)N2CCCN(c3ncnc4[nH]ccc34)CC23CC3)[nH]1` [Example 257, (5-methyl-4H-1,2,4-triazol-3-yl)-[5-(7H-pyrrolo[2,3-d]pyrimidin-4-yl)-5,9-diazaspiro[2.6]nonan-9-yl]methanone], for which the EC50 on JAK2 is 100 to 1000 nM; on JAK1, 100 to 1000 nM; at JAK3, above 1000 nM.
`O=C(Cc1ccccc1)N1CCN(c2ncnc3[nH]ccc23)CC2(CC2)C1` [Example 259, 2-phenyl-1-[5-(7H-pyrrolo[2,3-d]pyrimidin-4-yl)-5,8-diazaspiro[2.6]nonan-8-yl]ethanone]: the EC50 at JAK2 was below 100 nM; on JAK1 it was 100 to 1000 nM; at JAK3, 100 to 1000 nM.
`O=C(N1CCN(c2ncnc3[nH]ccc23)CC2(CC2)C1)C1(c2ccccc2)CC1` [Example 260, (1-phenylcyclopropyl)-[5-(7H-pyrrolo[2,3-d]pyrimidin-4-yl)-5,8-diazaspiro[2.6]nonan-8-yl]methanone]: the EC50 is 100 to 1000 nM at JAK2, above 1000 nM on JAK1 and above 1000 nM on JAK3.
Regarding `COc1ccc(CC(=O)N2CCN(c3ncnc4[nH]ccc34)CC3(CC3)C2)cc1` [Example 261, 2-(4-methoxyphenyl)-1-[5-(7H-pyrrolo[2,3-d]pyrimidin-4-yl)-5,8-diazaspiro[2.6]nonan-8-yl]ethanone], the values for the EC50 at JAK2, on JAK1 and at JAK3 were below 100 nM, 100 to 1000 nM and 100 to 1000 nM, respectively.
Consider `Cc1cccc(CC(=O)N2CCN(c3ncnc4[nH]ccc34)CC3(CC3)C2)c1` [Example 262, 2-(m-tolyl)-1-[5-(7H-pyrrolo[2,3-d]pyrimidin-4-yl)-5,8-diazaspiro[2.6]nonan-8-yl]ethanone], for which the values for the concentration giving a half-maximal response (EC50) at JAK2, on JAK1 and on JAK3 were below 100 nM, 100 to 1000 nM and above 1000 nM, respectively.
The like results for `O=C(Cc1ccc2ccccc2c1)N1CCN(c2ncnc3[nH]ccc23)CC2(CC2)C1` [Example 265, 2-(2-naphthyl)-1-[5-(7H-pyrrolo[2,3-d]pyrimidin-4-yl)-5,8-diazaspiro[2.6]nonan-8-yl]ethanone] were, in that order, below 100 nM, 100 to 1000 nM and 100 to 1000 nM.
For `N#CCc1ccc(CC(=O)N2CCN(c3ncnc4[nH]ccc34)CC3(CC3)C2)cc1` [Example 266, 2-[4-[2-oxo-2-[5-(7H-pyrrolo[2,3-d]pyrimidin-4-yl)-5,8-diazaspiro[2.6]nonan-8-yl]ethyl]phenyl]acetonitrile] the same measures were below 100 nM, below 100 nM and 100 to 1000 nM.
With `CC(C)(C)c1ccc(CC(=O)N2CCN(c3ncnc4[nH]ccc34)CC3(CC3)C2)cc1` [Example 267, 2-(4-tert-butylphenyl)-1-[5-(7H-pyrrolo[2,3-d]pyrimidin-4-yl)-5,8-diazaspiro[2.6]nonan-8-yl]ethanone], the EC50 at JAK2, at JAK1 and on JAK3 was 100 to 1000 nM each time.
Take `CN(C)c1ccc(CC(=O)N2CCN(c3ncnc4[nH]ccc34)CC3(CC3)C2)cc1` [Example 268, 2-(4-dimethylaminophenyl)-1-[5-(7H-pyrrolo[2,3-d]pyrimidin-4-yl)-5,8-diazaspiro[2.6]nonan-8-yl]ethanone]: the concentration giving a half-maximal response (EC50) at JAK2 is below 100 nM; on JAK1, 100 to 1000 nM; at JAK3 it was 100 to 1000 nM.
